What all share (experiment): relative viability (nuclei count vs DMSO), 5 days (fraction); higher = more cells survive
Compound in assay [1]: C1COCCN1C2=NC(=NC3=C2OC4=C3C=CC=N4)C5=CC(=CC=C5)NC(=O)C6=CN=C(C=C6)N + CS(=O)(=O)N1CCN(Cc2cc3nc(-c4cccc5[nH]ncc45)nc(N4CCOCC4)c3s2)CC1 [Pictilisib] (partner 1 µM)
In outline:
(§1)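 Five library-drug doses in √10 steps were combined with a fixed anchor-drug dose, or a single drug was given alone, by pin tool to lung cancer cell lines in 1536-well plates the day after seeding. Nuclei were stained and counted after 5 days. Relative viability is the nuclei count in treated wells over that in vehicle wells, taken as the median of duplicate plates.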

Compound in assay [2]: CN1CCC(CNc2ccc3ncc(-c4cccc(OC(F)(F)F)c4)n3n2)CC1 [SGI-1776] + Cc1nc(NC(=O)N2CCC[C@H]2C(N)=O)sc1-c1ccnc(C(C)(C)C(F)(F)F)c1 [Alpelisib] (partner 2 µM)
In a few lines:
as §1

Compound in assay [3]: Nc1ccccc1NC(=O)c1ccc(CNC(=O)OCc2cccnc2)cc1 [Entinostat] + N=C(N)NC(=N)NCCc1ccccc1 [Phenformin] (partner 250 µM)
In a few lines:
as §1

Compound in assay [4]: C1COCCN1C2=NC(=NC3=C2OC4=C3C=CC=N4)C5=CC(=CC=C5)NC(=O)C6=CN=C(C=C6)N + CC(=O)Nc1cccc(-n2c(=O)n(C3CC3)c(=O)c3c(Nc4ccc(I)cc4F)n(C)c(=O)c(C)c32)c1 [Trametinib] (partner 0.02 µM)
In outline: as §1

On to NCI-H1666, for which the relative viability in assay [1] (first compound 0.02 µM) came to 0.466; in assay [1] (first compound 0.06325 µM) it was 0.38; in assay [1] (first compound 0.2 µM) it was 0.404; in assay [1] (first compound 0.6325 µM), 0.311; in assay [1] (first compound 2 µM), 0.41; in assay [2] (first compound 0.08 µM), 1.06. The relative viability came out at 1 in assay [2] (first compound 0.8 µM); 1.01 in assay [2] (first compound 2.53 µM); 0.49 in assay [2] (first compound 8 µM); 0.56 in assay [3] (first compound 0.02 µM); 0.609 in assay [3] (first compound 0.06325 µM); 0.581 in assay [3] (first compound 0.2 µM). Also, the relative viability in assay [3] (first compound 0.6325 µM) came to 0.497; in assay [3] (first compound 2 µM) it was 0.443; in assay [4] (first compound 0.02 µM) it was 1.04; in assay [4] (first compound 0.06325 µM) it was 0.865; in assay [4] (first compound 0.2 µM) it was 0.753; in assay [4] (first compound 0.6325 µM), 0.751. The relative viability in assay [4] (first compound 2 µM) amounted to 0.694.

As for NCI-H1734, the relative viability in assay [1] (first compound 0.02 µM) was determined as 0.466; in assay [1] (first compound 0.06325 µM), 0.494; in assay [1] (first compound 0.2 µM) it was 0.429; in assay [1] (first compound 0.6325 µM), 0.443; in assay [1] (first compound 2 µM), 0.355; in assay [2] (first compound 0.08 µM), 0.69. The relative viability was 0.798 in assay [2] (first compound 0.8 µM); 0.733 in assay [2] (first compound 2.53 µM); 0.559 in assay [2] (first compound 8 µM); 0.439 in assay [3] (first compound 0.02 µM); 0.509 in assay [3] (first compound 0.06325 µM); 0.488 in assay [3] (first compound 0.2 µM). Further, the relative viability in assay [3] (first compound 0.6325 µM) was 0.342; in assay [3] (first compound 2 µM), 0.315; in assay [4] (first compound 0.02 µM), 0.657; in assay [4] (first compound 0.06325 µM), 0.816; in assay [4] (first compound 0.2 µM), 0.67; in assay [4] (first compound 0.6325 µM), 0.635. Moreover, in assay [4] (first compound 2 µM), the relative viability was found to be 0.512.

With NCI-H1755, the relative viability in assay [1] (first compound 0.02 µM) was determined as 0.481; in assay [1] (first compound 0.06325 µM) it was 0.494; in assay [1] (first compound 0.2 µM), 0.377; in assay [1] (first compound 0.6325 µM), 0.405; in assay [1] (first compound 2 µM) it was 0.357; in assay [2] (first compound 0.08 µM), 0.996. Moreover, the relative viability worked out at 0.944 in assay [2] (first compound 0.8 µM); 0.885 in assay [2] (first compound 2.53 µM); 0.795 in assay [2] (first compound 8 µM); 0.605 in assay [3] (first compound 0.02 µM); 0.613 in assay [3] (first compound 0.06325 µM); 0.569 in assay [3] (first compound 0.2 µM). The relative viability in assay [3] (first compound 0.6325 µM) is 0.513; in assay [3] (first compound 2 µM), 0.349; in assay [4] (first compound 0.02 µM), 0.741; in assay [4] (first compound 0.06325 µM), 0.827; in assay [4] (first compound 0.2 µM), 0.741; in assay [4] (first compound 0.6325 µM), 0.754. Further, the relative viability in assay [4] (first compound 2 µM) is 0.617.

For the cell line NCI-H1792, the relative viability in assay [1] (first compound 0.02 µM) came to 0.26; in assay [1] (first compound 0.06325 µM), 0.27; in assay [1] (first compound 0.2 µM) it was 0.258; in assay [1] (first compound 0.6325 µM) it was 0.17; in assay [1] (first compound 2 µM), 0.288; in assay [2] (first compound 0.08 µM) it was 0.765. In addition, the relative viability worked out at 0.663 in assay [2] (first compound 0.8 µM); 0.696 in assay [2] (first compound 2.53 µM); 0.552 in assay [2] (first compound 8 µM); 0.318 in assay [3] (first compound 0.02 µM); 0.441 in assay [3] (first compound 0.06325 µM); 0.315 in assay [3] (first compound 0.2 µM). Besides, the relative viability in assay [3] (first compound 0.6325 µM) came to 0.101; in assay [3] (first compound 2 µM) it was 0.17; in assay [4] (first compound 0.02 µM) it was 0.451; in assay [4] (first compound 0.06325 µM), 0.477; in assay [4] (first compound 0.2 µM), 0.368; in assay [4] (first compound 0.6325 µM), 0.374. Moreover, in assay [4] (first compound 2 µM), the relative viability came to 0.231.

Regarding NCI-H1793, the relative viability came out at 0.312 in assay [1] (first compound 0.02 µM); 0.279 in assay [1] (first compound 0.06325 µM); 0.398 in assay [1] (first compound 0.2 µM); 0.408 in assay [1] (first compound 0.6325 µM); 0.361 in assay [1] (first compound 2 µM); 0.807 in assay [2] (first compound 0.08 µM). Moreover, the relative viability in assay [2] (first compound 0.8 µM) was determined as 0.808; in assay [2] (first compound 2.53 µM), 0.974; in assay [2] (first compound 8 µM) it was 0.602; in assay [3] (first compound 0.02 µM) it was 0.439; in assay [3] (first compound 0.06325 µM), 0.4; in assay [3] (first compound 0.2 µM) it was 0.368. The relative viability came to 0.302 in assay [3] (first compound 0.6325 µM); 0.316 in assay [3] (first compound 2 µM); 0.55 in assay [4] (first compound 0.02 µM); 0.371 in assay [4] (first compound 0.06325 µM); 0.366 in assay [4] (first compound 0.2 µM); 0.46 in assay [4] (first compound 0.6325 µM). The relative viability in assay [4] (first compound 2 µM) turned out to be 0.355.

In the case of NCI-H1915, the relative viability in assay [1] (first compound 0.02 µM) is 0.924; in assay [1] (first compound 0.06325 µM), 0.96; in assay [1] (first compound 0.2 µM), 0.927; in assay [1] (first compound 0.6325 µM) it was 0.898; in assay [1] (first compound 2 µM), 0.845; in assay [2] (first compound 0.08 µM), 1.09. The relative viability was 1.12 in assay [2] (first compound 0.8 µM); 1.11 in assay [2] (first compound 2.53 µM); 1.03 in assay [2] (first compound 8 µM); 0.375 in assay [3] (first compound 0.02 µM); 0.346 in assay [3] (first compound 0.06325 µM); 0.372 in assay [3] (first compound 0.2 µM). In addition, the relative viability in assay [3] (first compound 0.6325 µM) stood at 0.261; in assay [3] (first compound 2 µM), 0.256; in assay [4] (first compound 0.02 µM), 0.3; in assay [4] (first compound 0.06325 µM), 0.313; in assay [4] (first compound 0.2 µM), 0.298; in assay [4] (first compound 0.6325 µM), 0.218. Moreover, the relative viability in assay [4] (first compound 2 µM) turned out to be 0.281.
